# Values of other authors as cited in US20100279989A1, “ORAL CONTRACEPTION WITH TRIMEGESTONE” (GRÜNENTHAL GMBH, priority 2005, published 2010).
# Tested on: ovulation
# Details: p.o.
smiles,measurement,value
"C[C@H](O)C(=O)[C@@]1(C)CC[C@H]2[C@@H]3CCC4=CC(=O)CCC4=C3CC[C@@]21C [trimegestone, 17β-[(S)-2-hydroxypropanoyl]-17α-methyl-estra-4,9-dien-3-one]",ovulation inhibition dose,0.5 mg per day
